# According to ChEMBL document CHEMBL1131397, “Synthesis and immunosuppressive activity of ruthenium complexes” (Bioorg Med Chem Lett, 1998):
# Organism: Homo sapiens
# Test: Immunosuppressive activity was evaluated by the inhibition of human T-lymphocyte proliferation
# Type: functional
Molecule,IC50 [nM],IC50 (Homo sapiens) [nM]
[Ru(imidazolidine)6](CF3SO3)2,4,–
CO[C@H]1C[C@@H]2CC[C@@H](C)[C@@](O)(O2)C(=O)C(=O)N2CCCC[C@H]2C(=O)O[C@H]([C@H](C)C[C@@H]2CC[C@@H](O)[C@H](OC)C2)CC(=O)[C@H](C)/C=C(\C)[C@@H](O)[C@@H](OC)C(=O)[C@H](C)C[C@H](C)/C=C/C=C/C=C/1C [SIROLIMUS],–,0.5
[Ru(imidazolidine)6]Cl2,5,–
